Data taken from patent publication US12174198B2, “Methods of characterizing condensate-associated characteristics of compounds and uses thereof” (Dewpoint Therapeutics, Inc., priority 2019, dated 2024).
Where a name gives a salt, the structure may show the parent alone.

Key:
PGL-3 condensates = target: T1, PGL-3 condensates (Caenorhabditis elegans, UniProt G5EBV6); assay: Fluorescence imaging of dye partitioning in PGL-3 condensates (I-in, I-out); assay type: physicochemical; conditions: for Ratio of intensity inside:outside PGL-3 Condensates Day 1 / Ratio of intensity inside:outside PGL-3 Condensates Day 2 / Ratio of intensity inside:outside PGL-3 Condensates Average: I-in:I-out; for Ratio of intensity inside:outside PGL-3 Condensates Day 1 / Ratio of intensity inside:outside PGL-3 Condensates Day 2 / Ratio of intensity inside:outside PGL-3 Condensates Average / Intensity Inside with Dye Average / Intensity Inside with Dye 1 / Intensity Inside with Dye 2 / Intensity Inside with Dye 3 / Intensity Outside with Dye Average / Intensity Outside with Dye 1 / Intensity Outside with Dye 2 / Intensity Outside with Dye 3: 10 μM dye; for Ratio of intensity inside:outside PGL-3 Condensates Average: average of two days; for Intensity Inside with Dye Average / Intensity Inside with Dye 1 / Intensity Inside with Dye 2 / Intensity Inside with Dye 3 / Intensity Inside Dye-No Dye: inside PGL-3 condensate; for Intensity Inside with Dye Average / Intensity Inside with Dye 1 / Intensity Inside with Dye 2 / Intensity Inside with Dye 3 / Intensity Outside with Dye Average / Intensity Outside with Dye 1 / Intensity Outside with Dye 2 / Intensity Outside with Dye 3: 5 μM protein; for Intensity Inside with Dye Average / Intensity Outside with Dye Average: average of three images; for Intensity Inside with Dye Average / Intensity Inside with Dye 1 / Intensity Inside with Dye 2 / Intensity Inside with Dye 3 / Intensity Inside Dye-No Dye / Intensity Outside with Dye Average / Intensity Outside with Dye 1 / Intensity Outside with Dye 2 / Intensity Outside with Dye 3 / Intensity Outside (Dye-No Dye): one day of experiments; for Intensity Inside with Dye 1 / Intensity Outside with Dye 1: image 1; for Intensity Inside with Dye 2 / Intensity Outside with Dye 2: image 2; for Intensity Inside with Dye 3 / Intensity Outside with Dye 3: image 3; for Intensity Inside Dye-No Dye / Intensity Outside (Dye-No Dye): background corrected; for Intensity Outside with Dye Average / Intensity Outside with Dye 1 / Intensity Outside with Dye 2 / Intensity Outside with Dye 3 / Intensity Outside (Dye-No Dye): outside PGL-3 condensate
T1 sequence (G5EBV6 1-693): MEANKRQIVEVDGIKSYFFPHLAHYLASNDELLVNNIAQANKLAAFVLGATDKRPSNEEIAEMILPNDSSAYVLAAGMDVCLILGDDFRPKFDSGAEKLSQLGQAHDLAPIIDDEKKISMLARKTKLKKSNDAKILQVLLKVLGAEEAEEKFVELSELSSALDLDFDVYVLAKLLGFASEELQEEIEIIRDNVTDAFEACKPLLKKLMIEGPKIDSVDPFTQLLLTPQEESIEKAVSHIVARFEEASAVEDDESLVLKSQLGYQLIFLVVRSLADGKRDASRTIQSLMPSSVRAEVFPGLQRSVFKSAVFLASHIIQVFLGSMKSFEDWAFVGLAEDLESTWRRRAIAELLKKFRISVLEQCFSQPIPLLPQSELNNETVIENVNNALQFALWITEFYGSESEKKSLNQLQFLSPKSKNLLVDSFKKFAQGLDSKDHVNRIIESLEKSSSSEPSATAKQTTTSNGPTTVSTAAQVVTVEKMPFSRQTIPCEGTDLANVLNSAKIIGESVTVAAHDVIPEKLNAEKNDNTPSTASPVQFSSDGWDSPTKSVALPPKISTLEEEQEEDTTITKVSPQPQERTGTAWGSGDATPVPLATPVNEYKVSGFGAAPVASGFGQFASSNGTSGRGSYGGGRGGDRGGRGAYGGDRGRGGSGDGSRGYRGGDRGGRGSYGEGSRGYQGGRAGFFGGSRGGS
Outline: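 Partitioning read by spinning-disk confocal imaging (60× oil, dye-specific exposure 1-1000 ms) of condensates formed from 5 μM protein (FUS-SNAP or untagged PGL-3) plus 10 μM dye, 75 mM KCl, 1% DMSO, pH 7.25. Background-subtracted intensities inside and beside one condensate per image, three images averaged.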

FUS-SNAP condensates = target: T2, FUS-SNAP condensates (Homo sapiens, UniProt P35637); assay: Fluorescence-based assay of compound partitioning compared with the MS assay (Example 4); assay type: physicochemical; conditions: condensate volume fraction of 1/1000 used
T2 sequence (P35637 1-526): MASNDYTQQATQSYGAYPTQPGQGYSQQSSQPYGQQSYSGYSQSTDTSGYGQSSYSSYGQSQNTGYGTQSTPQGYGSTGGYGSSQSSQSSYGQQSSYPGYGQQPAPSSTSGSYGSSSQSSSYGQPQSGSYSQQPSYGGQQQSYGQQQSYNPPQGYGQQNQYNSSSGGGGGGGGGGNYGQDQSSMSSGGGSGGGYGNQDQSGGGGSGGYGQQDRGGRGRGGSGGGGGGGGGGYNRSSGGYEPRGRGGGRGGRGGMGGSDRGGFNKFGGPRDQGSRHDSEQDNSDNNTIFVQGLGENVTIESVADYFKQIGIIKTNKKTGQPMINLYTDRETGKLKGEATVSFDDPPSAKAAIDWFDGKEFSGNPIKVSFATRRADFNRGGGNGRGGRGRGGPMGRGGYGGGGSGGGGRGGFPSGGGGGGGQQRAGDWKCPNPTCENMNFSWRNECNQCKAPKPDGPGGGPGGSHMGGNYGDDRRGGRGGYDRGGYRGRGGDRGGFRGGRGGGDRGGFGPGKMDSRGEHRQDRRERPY
Procedure: The partition characteristics of the test compounds were also determined using the fluorescence-based assay method disclosed in Example 2.
Rhodamine 101 (Rho 101), Rhodamine 800 ([…]), Rhodamine B (Rho B), Rhodamine 123 (Rho 123), and fluorescein were assessed using both the fluorescence-based assay and the mass spectrometry-based assay, as discussed above. […] Using the measurements, a ratio of compound concentration associated with the condensate compared to compound concentration not associated with the condensate was calculated for each compound. A condensate volume fraction of 1/1000 in relation to the outside phase was used.

Ratio of intensity inside:outside PGL-3 Condensates Day 1 (PGL-3 condensates)	Ratio of intensity inside:outside PGL-3 Condensates Day 2 (PGL-3 condensates)	Ratio of intensity inside:outside PGL-3 Condensates Average (PGL-3 condensates)	Intensity Inside with Dye Average (PGL-3 condensates)	Intensity Inside with Dye 1 (PGL-3 condensates)	Intensity Inside with Dye 2 (PGL-3 condensates)	Intensity Inside with Dye 3 (PGL-3 condensates)	Intensity Inside Dye-No Dye (PGL-3 condensates)	Intensity Outside with Dye Average (PGL-3 condensates)	Intensity Outside with Dye 1 (PGL-3 condensates)	Intensity Outside with Dye 2 (PGL-3 condensates)	Intensity Outside with Dye 3 (PGL-3 condensates)	Intensity Outside (Dye-No Dye) (PGL-3 condensates)	Ratio of compound concentration in versus compound concentration out, Fluorescence-based assay (FUS-SNAP condensates)	Compound
1.8	1.9	1.9	13067.5	12579.6	14061.0	12561.8	12966.0	7117.9	7184.0	7157.1	7012.6	7016.4	1,500	O=C([O-])c1ccccc1C1=c2cc3c4c(c2Oc2c1cc1c5c2CCCN5CCC1)CCC[N+]=4CCC3 [Dye 17, Rhodamine 101 inner salt]
3.4	2.4	2.9	730.8	714.9	700.1	777.4	604.6	309.4	301.3	294.6	332.2	178.7	1,000	N#CC1=c2cc3c4c(c2Oc2c1cc1c5c2CCCN5CCC1)CCC[N+]=4CCC3 [Dye 18, Rhodamine 800]
1.0	1.0	1.0	4402.0	4585.4	4501.5	4119.2	4255.5	4166.2	4395.6	4190.8	3912.1	4060.8	1	O=C1OC2(c3ccc(O)cc3Oc3cc(O)ccc32)c2ccccc21 [Dye 6, Fluorescein]
1.1	1.1	1.1	2877.7	2874.7	2858.2	2900.3	2731.2	2596.6	2628.3	2616.4	2545.0	2491.2	1	COC(=O)c1ccccc1-c1c2ccc(=N)cc-2oc2cc(N)ccc12.Cl [Dye 14, Rhodamine 123]

Compound	Ratio of intensity inside:outside PGL-3 Condensates Day 1 (PGL-3 condensates)	Ratio of intensity inside:outside PGL-3 Condensates Day 2 (PGL-3 condensates)	Ratio of intensity inside:outside PGL-3 Condensates Average (PGL-3 condensates)	Intensity Inside with Dye Average (PGL-3 condensates)	Intensity Inside with Dye 1 (PGL-3 condensates)	Intensity Inside with Dye 2 (PGL-3 condensates)	Intensity Inside with Dye 3 (PGL-3 condensates)	Intensity Inside Dye-No Dye (PGL-3 condensates)	Intensity Outside with Dye Average (PGL-3 condensates)	Intensity Outside with Dye 1 (PGL-3 condensates)	Intensity Outside with Dye 2 (PGL-3 condensates)	Intensity Outside with Dye 3 (PGL-3 condensates)	Intensity Outside (Dye-No Dye) (PGL-3 condensates)	Ratio of compound concentration in versus compound concentration out, Fluorescence-based assay (FUS-SNAP condensates)
CCN(CC)c1ccc2c(-c3ccccc3C(=O)O)c3ccc(=[N+](CC)CC)cc-3oc2c1 [Dye 16, Rhodamine B]	1.4	1.3	1.4	5776.5	5570.5	6179.8	5579.3	5675.0	4088.7	3907.8	4226.6	4131.5	3987.2	666
